Assay results reported in patent publication US9586949B2, “Aza-heteroaryl compounds as PI3K-gamma inhibitors” (Incyte Corporation, priority 2015, dated 2017).
Structures can show the parent of a compound that is named as a salt.

Columns and labels:
[1] = biological target: PI3Kδ (p110δ/p85α) Recombinant Human Protein (Homo sapiens (Human), UniProt O00329); assay: PI3Kδ Scintillation Proximity Assay; type: biochemical; settings: 20 μM PIP2, 2 μM ATP, 3.4 nM PI3Kδ, 120 min; read-out: PI3K-delta SPA IC50
Sequence of PI3Kδ (p110δ/p85α) Recombinant Human Protein (O00329 whole entry): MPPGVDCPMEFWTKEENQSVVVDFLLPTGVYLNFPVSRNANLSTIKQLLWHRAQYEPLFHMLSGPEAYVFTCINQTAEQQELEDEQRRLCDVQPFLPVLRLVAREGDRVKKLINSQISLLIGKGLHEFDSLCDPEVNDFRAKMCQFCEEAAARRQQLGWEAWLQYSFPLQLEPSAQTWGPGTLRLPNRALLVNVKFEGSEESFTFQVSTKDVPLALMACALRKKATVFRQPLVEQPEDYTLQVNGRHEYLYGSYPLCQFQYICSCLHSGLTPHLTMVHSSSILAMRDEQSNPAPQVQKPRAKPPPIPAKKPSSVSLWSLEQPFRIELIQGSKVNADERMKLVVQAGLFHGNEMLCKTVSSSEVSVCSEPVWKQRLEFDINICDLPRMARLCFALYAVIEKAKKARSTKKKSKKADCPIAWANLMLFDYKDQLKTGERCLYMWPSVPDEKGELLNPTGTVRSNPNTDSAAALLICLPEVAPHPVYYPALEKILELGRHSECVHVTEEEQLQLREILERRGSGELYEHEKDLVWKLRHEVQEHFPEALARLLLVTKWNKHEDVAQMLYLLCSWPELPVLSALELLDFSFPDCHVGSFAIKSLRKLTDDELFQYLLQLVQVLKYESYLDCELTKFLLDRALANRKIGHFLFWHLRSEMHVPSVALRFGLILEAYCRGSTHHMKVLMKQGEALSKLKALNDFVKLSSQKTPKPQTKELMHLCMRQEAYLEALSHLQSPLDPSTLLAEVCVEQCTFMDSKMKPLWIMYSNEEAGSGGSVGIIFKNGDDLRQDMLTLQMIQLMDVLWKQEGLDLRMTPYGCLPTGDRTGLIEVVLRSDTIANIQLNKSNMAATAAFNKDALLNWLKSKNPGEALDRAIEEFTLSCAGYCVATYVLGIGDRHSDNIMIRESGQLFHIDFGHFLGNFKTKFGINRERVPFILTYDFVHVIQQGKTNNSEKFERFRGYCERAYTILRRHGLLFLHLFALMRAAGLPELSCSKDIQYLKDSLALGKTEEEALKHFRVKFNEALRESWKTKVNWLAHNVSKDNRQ
Sequence of PI3Kδ (p110δ/p85α) Recombinant Human Protein (P27986 whole entry partner): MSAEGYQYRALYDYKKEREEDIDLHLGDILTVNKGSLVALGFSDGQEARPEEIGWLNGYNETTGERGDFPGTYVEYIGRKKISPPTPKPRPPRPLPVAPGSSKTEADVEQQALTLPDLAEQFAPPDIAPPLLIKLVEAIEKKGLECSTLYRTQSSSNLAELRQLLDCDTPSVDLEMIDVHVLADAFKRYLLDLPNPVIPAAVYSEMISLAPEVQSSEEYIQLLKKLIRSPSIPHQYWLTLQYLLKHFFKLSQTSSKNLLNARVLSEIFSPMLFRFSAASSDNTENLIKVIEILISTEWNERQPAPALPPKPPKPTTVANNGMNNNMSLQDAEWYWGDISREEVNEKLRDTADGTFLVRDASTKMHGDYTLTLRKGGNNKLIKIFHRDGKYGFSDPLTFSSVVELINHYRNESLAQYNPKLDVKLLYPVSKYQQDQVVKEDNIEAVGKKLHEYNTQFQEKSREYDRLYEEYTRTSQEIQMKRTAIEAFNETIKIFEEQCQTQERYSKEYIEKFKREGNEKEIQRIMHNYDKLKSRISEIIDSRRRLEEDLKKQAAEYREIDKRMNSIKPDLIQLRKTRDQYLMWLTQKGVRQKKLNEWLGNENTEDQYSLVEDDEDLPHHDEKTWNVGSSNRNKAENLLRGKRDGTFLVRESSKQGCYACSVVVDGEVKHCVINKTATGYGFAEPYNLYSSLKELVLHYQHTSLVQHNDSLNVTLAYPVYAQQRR
Source text: [γ-^33P]ATP (10 mCi/mL) and Wheat Germ Agglutinin (WGA) YSi SPA Scintillation Beads was purchased from Perkin-Elmer (Waltham, Mass.). Lipid kinase substrate, D-myo-Phosphatidylinositol 4,5-bisphosphate (PtdIns(4,5)P2)D (+)-sn-1,2-di-O-octanoylglyceryl, 3-O-phospho linked (PIP2), CAS 204858-53-7, was purchased from Echelon Biosciences (Salt Lake City, Utah). PI3Kδ (p110δ/p85α) Recombinant Human Protein was purchased from Eurofins (St Charles, Mo.). ATP, MgCl2, DTT, EDTA, MOPS and CHAPS were purchased from Sigma-Aldrich (St. Louis, Mo.).
(§1) The kinase reaction was conducted in polystyrene 384-well Greiner Bio-one white plate from Thermo Fisher Scientific in a final volume of 25 μL. Inhibitors were first diluted serially in DMSO and added to the plate wells before the addition of other reaction components. The final concentration of DMSO in the assay was 2%. The PI3Kδ assay was carried out at room temperature in 20 mM MOPS, pH 6.7, 10 mM MgCl2, 5 mM DTT and CHAPS 0.03%. Reactions were initiated by the addition of ATP, the final reaction mixture consisted of 20 μM PIP2, 2 μM ATP, 0.5 μCi [γ-^33P] ATP, 3.4 nM PI3Kδ. Reactions were incubated for 120 min and terminated by the addition of 40 μL SPA beads suspended in quench buffer: 163 mM potassium phosphate pH 7.8, 20% glycerol, 25 mM EDTA. The final concentration of SPA beads is 1.0 mg/mL. After the plate sealing, plates were shaken overnight at room temperature and centrifuged at 1500 rpm for 10 min, the radioactivity of the product was determined by scintillation counting on Topcount (Perkin-Elmer). IC50 determination was performed by fitting the curve of percent of the solvent control activity versus the log of the inhibitor concentration using the GraphPad Prism 6.0 software.

[2] = biological target: PI3Kγ (p110γ) Recombinant Human Protein (Homo sapiens (Human), UniProt P48736); assay: PI3K-γ Scintillation Proximity Assay; type: biochemical; settings: 20 μM PIP2, 2 μM ATP, 13 nM PI3Kγ, 120 min; read-out: PI3K-gamma SPA IC50
Sequence of PI3Kγ (p110γ) Recombinant Human Protein (P48736 whole entry): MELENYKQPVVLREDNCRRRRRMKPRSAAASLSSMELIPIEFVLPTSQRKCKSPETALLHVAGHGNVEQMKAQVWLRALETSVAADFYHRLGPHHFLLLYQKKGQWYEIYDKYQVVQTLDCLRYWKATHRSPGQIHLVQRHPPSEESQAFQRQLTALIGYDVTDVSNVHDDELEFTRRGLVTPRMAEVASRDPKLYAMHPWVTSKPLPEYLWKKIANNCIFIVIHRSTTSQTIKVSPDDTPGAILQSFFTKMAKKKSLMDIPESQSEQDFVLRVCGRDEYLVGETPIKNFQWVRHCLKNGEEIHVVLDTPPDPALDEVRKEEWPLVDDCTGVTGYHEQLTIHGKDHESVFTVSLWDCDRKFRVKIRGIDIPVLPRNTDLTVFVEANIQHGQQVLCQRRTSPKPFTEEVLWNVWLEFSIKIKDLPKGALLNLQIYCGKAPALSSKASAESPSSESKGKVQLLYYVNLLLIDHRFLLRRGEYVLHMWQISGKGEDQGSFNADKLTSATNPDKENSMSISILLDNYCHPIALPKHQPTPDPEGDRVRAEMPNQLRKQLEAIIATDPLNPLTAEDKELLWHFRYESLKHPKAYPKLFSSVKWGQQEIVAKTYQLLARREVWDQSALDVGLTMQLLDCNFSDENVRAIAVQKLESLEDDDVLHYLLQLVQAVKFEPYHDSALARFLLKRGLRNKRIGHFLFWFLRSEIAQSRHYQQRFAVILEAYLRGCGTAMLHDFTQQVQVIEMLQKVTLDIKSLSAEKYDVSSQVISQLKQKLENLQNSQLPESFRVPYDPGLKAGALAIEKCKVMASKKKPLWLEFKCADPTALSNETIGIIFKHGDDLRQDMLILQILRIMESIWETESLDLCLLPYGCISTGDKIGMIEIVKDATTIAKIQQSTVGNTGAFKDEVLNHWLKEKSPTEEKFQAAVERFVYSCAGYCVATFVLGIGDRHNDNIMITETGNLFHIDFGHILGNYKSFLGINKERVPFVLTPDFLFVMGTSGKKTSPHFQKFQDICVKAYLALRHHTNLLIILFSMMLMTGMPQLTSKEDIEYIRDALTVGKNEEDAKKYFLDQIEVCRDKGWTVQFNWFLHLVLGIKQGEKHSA
Method: [γ-^33P]ATP (10 mCi/mL) and Wheat Germ Agglutinin (WGA) YSi SPA Scintillation Beads was purchased from Perkin-Elmer (Waltham, Mass.). […] PI3Kγ (p110γ) Recombinant Human Protein was purchased from Life technology (Grand Island, N.Y.). ATP, MgCl2, DTT, EDTA, MOPS and CHAPS were purchased from Sigma-Aldrich (St. Louis, Mo.).
as §1, with “PI3Kγ” for “PI3Kδ”, “ATP, 3.4 nM PI3Kδ. Reactions were incubated for 120 min and terminated by the addition of 40 μL SPA beads suspended in quench buffer: 163 mM potassium phosphate pH 7.8, 20% glycerol, 25 mM EDTA.” left out

Row | Compound | IC50 [1] | IC50 [2]
1 | Cc1nc(-c2nc3ccc(-c4cncc(S(C)(=O)=O)c4)cc3o2)[nH]c1C [Example 62, 2-(4,5-Dimethyl-1H-imidazol-2-yl)-6-(5-(methylsulfonyl)pyridin-3-yl)benzo[d]oxazole bis(trifluoroacetate)] | < 5 µM | < 1 µM
2 | CCn1ncc2ncc(-c3ccc4nc(-c5nc6ccccc6[nH]5)oc4c3)cc21 [Example 57, 6-[2-(1H-Benzimidazol-2-yl)-1,3-benzoxazol-6-yl]-1-ethyl-1H-pyrazolo[4,3-b]pyridine tris(trifluoroacetate)] | < 1 µM | < 0.25 µM
3 | CCc1ncc(-c2nc3ccc(-c4cncc(OC)c4)cc3o2)[nH]1 [Example 45, 2-(2-Ethyl-1H-imidazol-5-yl)-6-(5-methoxy-pyridin-3-yl)benzo[d] oxazole] | ≥ 5 µM | > 5 µM
4 | COc1cncc(-c2ccc3nc(-c4nc5ccccc5[nH]4)sc3c2)c1 [Example 6, 2-(1H-Benzo[d]imidazol-2-yl)-6-(5-methoxypyridin-3-yl)benzo[d]thiazole trifluoroacetate] | ≥ 5 µM | > 5 µM
5 | COc1cncc(-c2ccc3nc(-c4nc5ccc(Br)cc5[nH]4)oc3c2)c1 [Example 8, 2-(6-Bromo-1H-benzo[d]imidazol-2-yl)-6-(5-methoxypyridin-3-yl)benzo[d]oxazole] |  | < 1 µM
6 | COc1cncc(-c2ccc3nc(-c4cc(-c5ccccc5)n[nH]4)oc3c2)c1 [Example 47, 6-(5-Methoxypyridin-3-yl)-2-(3-phenyl-1H-pyrazol-5-yl)benzo[d]oxazole] | ≥ 5 µM | < 5 µM
7 | COc1cncc(-c2ccc3nc(-c4cnc(C5CC5)[nH]4)oc3c2)c1 [Example 42, 2-(2-Cyclopropyl-1H-imidazol-5-yl)-6-(5-methoxypyridin-3-yl)benzo[d]oxazole] | < 5 µM | < 1 µM
8 | c1ccc(CN2CCN(c3ccc4nc(-c5nc6ccccc6[nH]5)oc4c3)CC2)cc1 [Example 55, 2-(1H-Benzimidazol-2-yl)-6-(4-benzylpiperazin-1-yl)-1,3-benzoxazole tris(trifluoroacetate)] | ≥ 5 µM | < 5 µM
9 | O=S(=O)(CC(F)(F)F)Nc1cncc(-c2ccc3nc(-c4nc5ccccc5[nH]4)oc3c2)c1 [Example 77, N-(5-(2-(1H-Benzo [d]imidazol-2-yl)benzo[d]oxazol-6-yl)pyridin-3-yl)-2,2,2-trifluoro-ethanesulfonamide bis(trifluoroacetate)] | < 1 µM | < 0.25 µM
10 | CC(=O)Nc1cncc(-c2ccc3nc(-c4nc5ccccc5[nH]4)oc3c2)c1 [Example 33, N-(5-(2-(1H-Benzo[d]imidazol-2-yl)benzo[d]oxazol-6-yl)pyridin-3-yl)acetamide] | ≥ 5 µM | < 1 µM
11 | CN(C)S(=O)(=O)Nc1cncc(-c2ccc3nc(-c4ncc[nH]4)oc3c2)c1 [Example 41, N′-{5-[2-(1H-Imidazol-2-yl)-1,3-benzoxazol-6-yl]pyridin-3-yl}-N,N-dimethyl-sulfamide] | < 1 µM | < 0.25 µM
12 | COc1cncc(-c2ccc3nc(-c4cc5ccccc5[nH]4)oc3c2)c1 [Example 5, 2-(1H-Indol-2-yl)-6-(5-methoxypyridin-3-yl)benzo[d]oxazole trifluoroacetate] | < 1 µM | < 0.25 µM
13 | COc1cncc(-c2ccc3nc(-c4nc5ccccc5[nH]4)ccc3c2)c1 [Example 7, 2-(1H-Benzo[d]imidazol-2-yl)-6-(5-methoxypyridin-3-yl)quinoline] | ≥ 5 µM | < 1 µM

Continued, values first:

Row | IC50 [1] | IC50 [2] | Compound
14 | < 0.25 µM | < 0.25 µM | OC(c1cncc(-c2ccc3nc(-c4nc5c([nH]4)CCCC5)oc3c2)c1)C(F)(F)F (centres unmarked) [Example 68, 2,2,2-Trifluoro-1-(5-(2-(4,5,6,7-tetrahydro-1H-benzo[d]imidazol-2-yl)benzo[d]oxazol-6-yl)pyridin-3-yl)ethanol]
15 | < 5 µM | < 0.25 µM | CP(C)(=O)c1cncc(-c2ccc3nc(-c4nc5ccccc5[nH]4)oc3c2)c1 [Example 72, 2-(1H-Benzo[d]imidazol-2-yl)-6-(5-(dimethyl-phosphoryl)pyridin-3-yl)benzo[d]oxazole bis(trifluoroacetate)]
16 | ≥ 5 µM | < 0.25 µM | Nc1ncc(-c2ccc3nc(-c4nc5ccccc5[nH]4)oc3c2)cc1C(F)(F)F [Example 56, 5-[2-(1H-Benzimidazol-2-yl)-1,3-benzoxazol-6-yl]-3-(trifluoromethyl)pyridin-2-amine bis(trifluoroacetate)]
17 | ≥ 5 µM | < 0.25 µM | CCS(=O)(=O)Nc1cc(-c2ccc3nc(-c4nc5ccccc5[nH]4)oc3c2)ccc1F [Example 60, N-{5-[2-(1H-Benzimidazol-2-yl)-1,3-benzoxazol-6-yl]-2-fluorophenyl}ethanesulfonamide]
18 | < 5 µM | < 0.25 µM | CS(=O)(=O)c1cncc(-c2ccc3nc(-c4nc5ccccc5[nH]4)oc3c2)c1 [Example 36, 2-(1H-Benzo[d]imidazol-2-yl)-6-(5-(methylsulfonyl)pyridin-3-yl)benzo[d]oxazole]
19 | < 0.25 µM | < 0.25 µM | Cc1ncc(-c2ccc3nc(-c4nc5ccccc5[nH]4)oc3c2)cc1NS(=O)(=O)c1ccc(F)cc1 [Example 28, N-(5-(2-(1H-Benzo[d]imidazol-2-yl)benzo[d]oxazol-6-yl)-2-methylpyridin-3-yl)-4-fluorobenzenesulfonamide]
20 | ≥ 5 µM | < 0.25 µM | COc1cc(-c2ccc3nc(-c4nc5ccccc5[nH]4)oc3c2)cnc1F [Example 69, 2-(1H-Benzo[d]imidazol-2-yl)-6-(6-fluoro-5-methoxypyridin-3-yl)benzo[d]oxazole bis(trifluoroacetate)]
21 | < 5 µM | < 0.25 µM | c1ccc2[nH]c(-c3nc4ccc(-c5ccc6[nH]ncc6c5)cc4o3)nc2c1 [Example 49, 2-(1H-Benzimidazol-2-yl)-6-(1H-indazol-5-yl)-1,3-benzoxazole]
22 | < 1 µM | < 0.25 µM | CCS(=O)(=O)Nc1cc(-c2ccc3nc(-c4nc5ccccc5[nH]4)oc3c2)cnc1F [Example 27, N-(5-(2-(1H-Benzo[d]imidazol-2-yl)benzo[d]oxazol-6-yl)-2-fluoropyridin-3-yl)ethanesulfonamide]
23 | < 0.25 µM | < 0.25 µM | CN1CCN(S(=O)(=O)Nc2cc(-c3ccc4nc(-c5nc6ccccc6[nH]5)oc4c3)cnc2F)CC1 [Example 32, N-(5-(2-(1H-Benzo[d]imidazol-2-yl)benzo[d]oxazol-6-yl)-2-fluoropyridin-3-yl)-4-methylpiperazine-1-sulfonamide]
24 | < 0.25 µM | < 0.25 µM | CCS(=O)(=O)Nc1cc(-c2ccc3nc(-c4nc5ccccc5[nH]4)oc3c2)cnc1C [Example 25, N-(5-(2-(1H-Benzo[d]imidazol-2-yl)benzo[d]oxazol-6-yl)-2-methylpyridin-3-yl)ethanesulfonamide]
25 | ≥ 5 µM | < 0.25 µM | CCn1cc2ccc(-c3ccc4nc(-c5nc6ccccc6[nH]5)oc4c3)cc2n1 [Example 53, 2-(1H-benzimidazol-2-yl)-6-(2-ethyl-2H-indazol-6-yl)-1,3-benzoxazole bis(trifluoroacetate)]
26 | < 5 µM | < 0.25 µM | CN(C)c1cncc(-c2ccc3nc(-c4nc5ccccc5[nH]4)oc3c2)c1 [Example 34, 5-(2-(1H-Benzo[d]imidazol-2-yl)benzo[d]oxazol-6-yl)-N,N-dimethylpyridin-3-amine]
27 | ≥ 5 µM | < 0.25 µM | CCn1ncc2ccc(-c3ccc4nc(-c5nc6ccccc6[nH]5)oc4c3)cc21 [Example 54, 2-(1H-benzimidazol-2-yl)-6-(1-ethyl-1H-indazol-6-yl)-1,3-benzoxazole bis(trifluoroacetate)]
